Test results from ChEMBL document CHEMBL1155983, “Synthesis of novel [1,2]-diamines with antituberculosis activity” (Bioorg Med Chem Lett, 2009).
Values after ≈ are worked out from the molar mass of the structure shown.

How the values were obtained:
[1] = tested on: Mycobacterium tuberculosis; experiment: Antituberculosis activity against Mycobacterium tuberculosis H37Rv by microbroth dilution assay; type: functional
[2] = Oral bioavailability in rat; type: ADME, organism-based; conditions: in vivo
[3] = Oral bioavailability in dog; type: ADME, organism-based, Canis lupus familiaris; conditions: in vivo

Row | Compound | MIC [1] | bioavailability [2] | bioavailability [3]
1 | CC(C)=CCC/C(C)=C/CNCCNC1C2CC3CC(C2)CC1(O)C3 (centres undefined) | 0.6 µM (≈ 0.208 µg/mL) | – | –
2 | COC12CC3CC(CC(C3)C1NCCNC/C=C(\C)CCC=C(C)C)C2 (centres undefined) | 0.5 µM (≈ 0.18 µg/mL) | – | –
3 | CC(C)=CCC/C(C)=C/CNCCNC1C2CC3CC1CC(O)(C3)C2 (centres undefined) | 8.6 µM (≈ 2.98 µg/mL) | – | –
4 | CCC(/C=C(\C)CCC=C(C)C)NCCNC1C2CC3CC(C2)CC1C3 (centres undefined) | 1.2 µM (≈ 0.43 µg/mL) | – | –
5 | CC(C)=CCC/C(C)=C/CNCCNC1C2CC3CC1CC(F)(C3)C2 (centres undefined) | 0.6 µM (≈ 0.209 µg/mL) | – | –
6 | CC(C)=CCC/C(C)=C/CNCCNC1C2CC3CC(C2)CC1(F)C3 (centres undefined) | 0.3 µM (≈ 0.105 µg/mL) | – | –
7 | COC12CC3CC(C1)C(NCCNC/C=C(\C)CCC=C(C)C)C(C3)C2 (centres undefined) | 1.7 µM (≈ 0.613 µg/mL) | – | –
8 | CC(C)=CCC/C(C)=C/CNCCNC1C2CC3CC(C2)CC1C3.Cl.Cl (centres undefined) | 0.6 µM | 12% | 3.8%
9 | CC(C)=CCC/C(C)=C/C(Cc1ccc(OC(F)(F)F)cc1)NCCNC1C2CC3CC(C2)CC1C3 (centres undefined) | 5.2 µM (≈ 2.62 µg/mL) | – | –
10 | CC(C)=CCC/C(C)=C/C(Cc1ccccc1)NCCNC1C2CC3CC(C2)CC1C3 (centres undefined) | 1 µM (≈ 0.421 µg/mL) | – | –
11 | CC(C)=CCC/C(C)=C/C(C)NCCNC1C2CC3CC(C2)CC1C3 (centres undefined) | 1.2 µM (≈ 0.414 µg/mL) | – | –
12 | CC(C)=CCC/C(C)=C/C(Cc1ccc(F)cc1)NCCNC1C2CC3CC(C2)CC1C3 (centres undefined) | 3 µM (≈ 1.32 µg/mL) | – | –
